One data set relates to HEK 293 T cells. The data set can be described thus: Cytotoxicity, MultiTox-Fluor (nephrotoxicity). The format is cell-based. To be noted: up to 50 µM.
Another data set deals with U-87 MG cells. The data set can be described thus: Cytotoxicity, MultiTox-Fluor (CNS gliotoxicity). To be noted: U-87 MG, up to 50 µM. An excerpt:
Cell viability and toxicity were simultaneously assessed using the MultiTox-Fluor Multiplex Cytotoxicity Assay (Cat# PRG9200, Fisher Scientific) according to the manufacturer’s protocol.

In a further data set the target is hERG potassium channel (Homo sapiens, UniProt Q12809). Kind of data set: hERG potassium channel inhibition assay. Background: hERG is a cardiac potassium channel; its block is linked to QT prolongation.
The next data set concerns HEPG2 cells. Kind of data set: Cytotoxicity, MultiTox-Fluor (hepatotoxicity). The format is cell-based. To be noted: HEPG2, up to 50 µM.
Data set [1] has as its system ApoE4TR-5XFAD murine model of AD. The data set can be described thus: Subchronic two-week oral study in ApoE4TR-5XFAD mice (hippocampus biomarkers, proteomics). It is filed as in vivo, mouse. Particulars: oral 15 mg/kg BID, two weeks, vs vehicle. As to the method: Brain tissue was homogenized and diluted to a protein concentration of 50 ng/mL. The Mouse Clusterin ELISA Kit (Cat#ab199079, Abcam) was performed according to the manufacturer’s protocol.
Additional assays: The Aβ1-42 ELISA assay was performed on hippocampus brain homogenate according to the manufacturer’s protocol (Fisher KHB3441). Humanin in cell culture lysate was quantify by ELISA assay, according to the manufacturer’s protocol (MyBioSourc Cat# MBS7607247). SirT1 in cell culture lysate was quantify using AlphaLISA. Cell lysate (2 μL) was added to a 384-well proxy plate preloaded with 2 µL anti-SiRT1 antibody mixture (ABCAM catalog AB110304, biotinylated (10 nM) and ABCAM catalog AB104833, acceptor bead conjugated (50 µg/mL, Cat#6772001, Perkin Elmer)) was added and incubated at room temperature for 1 hour. AlphaScreen Streptavidin Donor beads (2 µL, Cat#6760002S, Perkin Elmer) were added, incubated for an additional 30 min in the dark, and the plate was read in an Envision plate reader.
All procedures were performed in accordance with protocols approved by the UCLA Institutional Animal Care and Use Committee (IACUC) and guidelines of the NIH. Mouse strains used were C57BL/6 J (Black 6, Jackson Laboratory; JAX stock #000564). All non-AD mice were 4 to 5 mo old at the time of the experiments. […]

The next data set concerns SH-SY5Y cells. Kind of data set: Cytotoxicity, MultiTox-Fluor (neurotoxicity). The format is cell-based, human. To be noted: up to 50 µM.

The source of these data is article PMC12048343, “Discovery of a small molecule secreted clusterin enhancer that improves memory in Alzheimer’s disease mice” (npj Drug Discovery, 2025).

Some results are limits rather than exact numbers.

Sequence of hERG potassium channel (Q12809 whole entry): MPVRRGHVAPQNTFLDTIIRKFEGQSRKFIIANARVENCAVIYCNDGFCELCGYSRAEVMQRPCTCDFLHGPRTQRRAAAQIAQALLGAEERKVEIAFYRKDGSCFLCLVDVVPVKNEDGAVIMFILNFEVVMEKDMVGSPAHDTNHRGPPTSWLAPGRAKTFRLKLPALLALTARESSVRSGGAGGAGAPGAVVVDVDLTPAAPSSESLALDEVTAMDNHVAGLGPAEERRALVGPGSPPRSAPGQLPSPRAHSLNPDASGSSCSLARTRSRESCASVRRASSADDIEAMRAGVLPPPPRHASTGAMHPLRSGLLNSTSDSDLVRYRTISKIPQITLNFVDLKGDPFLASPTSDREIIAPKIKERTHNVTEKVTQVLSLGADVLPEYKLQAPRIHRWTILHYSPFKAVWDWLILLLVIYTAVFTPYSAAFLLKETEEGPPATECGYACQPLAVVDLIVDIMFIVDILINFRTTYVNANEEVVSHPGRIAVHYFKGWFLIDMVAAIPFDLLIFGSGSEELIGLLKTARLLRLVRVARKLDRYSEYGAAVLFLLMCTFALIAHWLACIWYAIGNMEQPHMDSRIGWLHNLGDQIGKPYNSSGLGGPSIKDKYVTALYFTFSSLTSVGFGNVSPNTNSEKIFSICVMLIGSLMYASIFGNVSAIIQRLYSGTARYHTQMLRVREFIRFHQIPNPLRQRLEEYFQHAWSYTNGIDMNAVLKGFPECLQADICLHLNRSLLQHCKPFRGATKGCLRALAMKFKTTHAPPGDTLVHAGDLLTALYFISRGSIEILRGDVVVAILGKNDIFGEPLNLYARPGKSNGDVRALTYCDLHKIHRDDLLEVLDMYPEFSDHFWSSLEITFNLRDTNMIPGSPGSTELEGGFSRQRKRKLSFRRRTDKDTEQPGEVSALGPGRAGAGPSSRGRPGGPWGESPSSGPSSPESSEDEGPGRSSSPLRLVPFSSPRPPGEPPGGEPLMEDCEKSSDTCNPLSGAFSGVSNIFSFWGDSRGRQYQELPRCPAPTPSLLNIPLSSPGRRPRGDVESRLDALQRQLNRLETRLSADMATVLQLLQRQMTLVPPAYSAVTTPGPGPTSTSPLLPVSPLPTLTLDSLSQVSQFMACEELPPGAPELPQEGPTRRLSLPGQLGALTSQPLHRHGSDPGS

The EC50 is the concentration needed to bring the measured effect to its halfway point. Take `Cc1sc2c(c1C)C(c1ccc(Cl)cc1)=N[C@@H](CC(=O)OC1CC1)c1nnc(C)n1-2` [DDL-357]: the Ctox with HEK 293 T cells, with U-87 MG cells, in the data set on HEPG2 cells and in the data set on SH-SY5Y cells was ≥ 50 µM throughout. The EC50 at hERG potassium channel was > 100 µM. In addition, the Aβ1-42 in brain entry in data set [1] is “the difference did not reach significance”. In addition, the “sCLU levels in the hippocampus” value in data set [1] is “significant increase”.
